Measurements reported in publication PMC3961306, “Comparison of the Cancer Gene Targeting and Biochemical Selectivities of All Targeted Kinase Inhibitors Approved for Clinical Use” (PLoS ONE, 2014).

Tests used:
Experiment in all cases: Kinase profiling in a biochemical assay panel (mobility shift assays and ELISA), %-inhibition at 1 μM; selectivity entropy
[1] = biological target: T1, panel of more than 300 wild-type and mutant kinases (313 kinase panel) (Homo sapiens, UniProt Q8TF76)
T1 sequence (Q8TF76 1-798): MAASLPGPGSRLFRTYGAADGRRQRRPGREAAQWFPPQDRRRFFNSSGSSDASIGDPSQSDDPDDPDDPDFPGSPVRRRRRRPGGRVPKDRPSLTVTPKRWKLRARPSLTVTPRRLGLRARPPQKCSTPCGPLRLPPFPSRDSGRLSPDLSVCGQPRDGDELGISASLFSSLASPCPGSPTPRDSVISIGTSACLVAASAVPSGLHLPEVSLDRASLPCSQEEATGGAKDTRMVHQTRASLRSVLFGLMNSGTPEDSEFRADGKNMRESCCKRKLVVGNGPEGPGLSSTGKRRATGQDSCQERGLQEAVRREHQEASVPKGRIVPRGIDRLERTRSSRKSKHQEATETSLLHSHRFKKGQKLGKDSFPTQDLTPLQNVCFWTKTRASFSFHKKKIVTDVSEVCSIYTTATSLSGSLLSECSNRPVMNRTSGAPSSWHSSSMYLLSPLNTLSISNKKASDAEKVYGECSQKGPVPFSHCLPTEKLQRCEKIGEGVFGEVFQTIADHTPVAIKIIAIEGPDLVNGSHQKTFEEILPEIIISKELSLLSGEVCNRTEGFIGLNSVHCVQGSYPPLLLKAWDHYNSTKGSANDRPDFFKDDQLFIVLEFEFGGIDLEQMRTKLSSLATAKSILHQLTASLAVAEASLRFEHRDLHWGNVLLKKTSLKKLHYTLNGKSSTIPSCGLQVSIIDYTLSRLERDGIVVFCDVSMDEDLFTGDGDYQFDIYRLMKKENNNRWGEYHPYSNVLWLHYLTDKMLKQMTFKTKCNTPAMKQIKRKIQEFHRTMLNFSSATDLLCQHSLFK

[2] = biological target: panel of more than 300 wild-type and mutant kinases (313 kinase panel) (Homo sapiens, UniProt Q96SB4)
[3] = biological target: T2, panel of more than 300 wild-type and mutant kinases (313 kinase panel) (Homo sapiens, UniProt P46734)
T2 sequence (P46734 1-347): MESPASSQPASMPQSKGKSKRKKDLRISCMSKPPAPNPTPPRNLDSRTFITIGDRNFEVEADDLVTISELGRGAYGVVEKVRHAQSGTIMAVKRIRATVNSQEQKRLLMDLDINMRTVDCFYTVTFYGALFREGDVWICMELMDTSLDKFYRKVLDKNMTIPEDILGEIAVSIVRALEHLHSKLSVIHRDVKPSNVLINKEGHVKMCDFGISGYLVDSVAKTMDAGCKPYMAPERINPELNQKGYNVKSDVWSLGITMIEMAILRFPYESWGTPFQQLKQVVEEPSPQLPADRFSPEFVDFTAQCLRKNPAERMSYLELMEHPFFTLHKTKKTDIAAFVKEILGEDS

[4] = biological target: panel of more than 300 wild-type and mutant kinases (313 kinase panel) (Homo sapiens, UniProt P08581)
[5] = biological target: panel of more than 300 wild-type and mutant kinases (313 kinase panel) (Homo sapiens, UniProt P10721, V654A)
[6] = biological target: panel of more than 300 wild-type and mutant kinases (313 kinase panel) (Homo sapiens, UniProt P31751)
[7] = biological target: T3, panel of more than 300 wild-type and mutant kinases (313 kinase panel) (Homo sapiens, UniProt Q8TD19)
T3 sequence (Q8TD19 1-979): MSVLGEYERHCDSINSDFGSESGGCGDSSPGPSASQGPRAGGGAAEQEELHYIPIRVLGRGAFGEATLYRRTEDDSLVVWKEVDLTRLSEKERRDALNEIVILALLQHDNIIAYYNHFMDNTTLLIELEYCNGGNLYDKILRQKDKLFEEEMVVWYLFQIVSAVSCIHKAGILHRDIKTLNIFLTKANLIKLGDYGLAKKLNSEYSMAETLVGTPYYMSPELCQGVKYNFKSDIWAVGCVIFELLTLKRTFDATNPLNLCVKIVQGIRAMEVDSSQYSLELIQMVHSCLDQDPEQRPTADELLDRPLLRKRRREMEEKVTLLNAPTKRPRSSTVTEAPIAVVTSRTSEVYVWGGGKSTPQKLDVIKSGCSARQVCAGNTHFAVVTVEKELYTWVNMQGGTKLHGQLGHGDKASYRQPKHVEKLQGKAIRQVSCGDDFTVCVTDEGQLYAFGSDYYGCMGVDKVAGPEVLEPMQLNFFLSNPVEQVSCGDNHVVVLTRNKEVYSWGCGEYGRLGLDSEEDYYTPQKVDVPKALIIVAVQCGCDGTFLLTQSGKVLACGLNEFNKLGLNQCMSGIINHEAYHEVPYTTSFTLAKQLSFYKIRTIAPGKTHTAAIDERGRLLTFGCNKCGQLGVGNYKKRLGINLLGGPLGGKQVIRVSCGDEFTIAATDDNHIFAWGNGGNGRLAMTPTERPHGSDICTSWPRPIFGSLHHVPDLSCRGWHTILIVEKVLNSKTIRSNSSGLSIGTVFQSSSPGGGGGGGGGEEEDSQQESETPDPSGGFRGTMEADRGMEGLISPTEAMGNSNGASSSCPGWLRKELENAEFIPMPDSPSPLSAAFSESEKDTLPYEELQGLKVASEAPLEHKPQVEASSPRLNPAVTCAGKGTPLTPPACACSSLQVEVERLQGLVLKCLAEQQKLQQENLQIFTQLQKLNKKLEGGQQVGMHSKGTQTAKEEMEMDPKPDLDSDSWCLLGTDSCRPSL

[8] = biological target: panel of more than 300 wild-type and mutant kinases (313 kinase panel) (Homo sapiens, UniProt Q02763)
[9] = kinase Haspin, compound at 1 μM
[10] = kinase MAP2K3, compound at 1 μM
[11] = kinase KIT(V654A), compound at 1 μM

Sequence of panel of more than 300 wild-type and mutant kinases (313 kinase panel) (Homo sapiens, UniProt P31751) (P31751 whole entry, change not shown): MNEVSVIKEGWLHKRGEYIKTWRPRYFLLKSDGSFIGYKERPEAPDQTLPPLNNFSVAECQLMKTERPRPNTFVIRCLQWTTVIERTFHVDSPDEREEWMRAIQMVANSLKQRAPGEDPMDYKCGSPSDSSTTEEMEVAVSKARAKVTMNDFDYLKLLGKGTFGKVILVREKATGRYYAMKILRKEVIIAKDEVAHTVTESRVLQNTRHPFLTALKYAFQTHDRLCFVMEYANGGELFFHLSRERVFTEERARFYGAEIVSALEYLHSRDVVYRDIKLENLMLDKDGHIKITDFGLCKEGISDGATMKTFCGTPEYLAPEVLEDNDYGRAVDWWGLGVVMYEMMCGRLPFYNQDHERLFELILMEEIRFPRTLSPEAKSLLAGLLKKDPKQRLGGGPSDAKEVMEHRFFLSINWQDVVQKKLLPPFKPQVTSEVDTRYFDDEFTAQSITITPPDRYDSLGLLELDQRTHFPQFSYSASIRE
Sequence of panel of more than 300 wild-type and mutant kinases (313 kinase panel) (Homo sapiens, UniProt Q02763) (Q02763 23-1124, change not shown): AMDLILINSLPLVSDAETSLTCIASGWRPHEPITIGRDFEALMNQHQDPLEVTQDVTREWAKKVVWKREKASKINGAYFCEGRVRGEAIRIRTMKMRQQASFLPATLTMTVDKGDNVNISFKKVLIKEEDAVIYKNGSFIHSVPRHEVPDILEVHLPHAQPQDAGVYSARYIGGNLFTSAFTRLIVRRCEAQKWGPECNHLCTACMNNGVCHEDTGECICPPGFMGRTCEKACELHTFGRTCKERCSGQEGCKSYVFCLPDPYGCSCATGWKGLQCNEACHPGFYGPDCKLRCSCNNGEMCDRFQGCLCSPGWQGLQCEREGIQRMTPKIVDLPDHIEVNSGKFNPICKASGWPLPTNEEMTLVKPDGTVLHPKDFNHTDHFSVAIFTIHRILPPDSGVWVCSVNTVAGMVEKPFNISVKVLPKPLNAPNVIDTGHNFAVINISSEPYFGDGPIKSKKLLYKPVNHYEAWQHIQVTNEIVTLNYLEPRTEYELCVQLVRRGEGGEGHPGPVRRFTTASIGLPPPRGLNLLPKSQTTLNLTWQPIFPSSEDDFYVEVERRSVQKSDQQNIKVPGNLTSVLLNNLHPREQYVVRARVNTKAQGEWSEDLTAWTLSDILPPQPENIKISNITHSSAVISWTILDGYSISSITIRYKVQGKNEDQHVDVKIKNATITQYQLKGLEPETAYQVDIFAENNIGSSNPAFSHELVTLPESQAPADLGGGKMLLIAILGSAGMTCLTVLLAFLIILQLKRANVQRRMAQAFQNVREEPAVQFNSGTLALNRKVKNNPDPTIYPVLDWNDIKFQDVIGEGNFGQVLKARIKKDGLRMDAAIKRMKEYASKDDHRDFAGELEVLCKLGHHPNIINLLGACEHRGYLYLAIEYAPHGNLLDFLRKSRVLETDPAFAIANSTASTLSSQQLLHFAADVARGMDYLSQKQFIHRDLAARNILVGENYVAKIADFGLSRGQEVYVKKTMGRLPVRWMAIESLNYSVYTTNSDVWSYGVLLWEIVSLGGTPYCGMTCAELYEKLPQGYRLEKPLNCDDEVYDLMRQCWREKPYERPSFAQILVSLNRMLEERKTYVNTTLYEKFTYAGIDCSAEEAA
Sequence of panel of more than 300 wild-type and mutant kinases (313 kinase panel) (Homo sapiens, UniProt Q96SB4) (Q96SB4 whole entry, change not shown): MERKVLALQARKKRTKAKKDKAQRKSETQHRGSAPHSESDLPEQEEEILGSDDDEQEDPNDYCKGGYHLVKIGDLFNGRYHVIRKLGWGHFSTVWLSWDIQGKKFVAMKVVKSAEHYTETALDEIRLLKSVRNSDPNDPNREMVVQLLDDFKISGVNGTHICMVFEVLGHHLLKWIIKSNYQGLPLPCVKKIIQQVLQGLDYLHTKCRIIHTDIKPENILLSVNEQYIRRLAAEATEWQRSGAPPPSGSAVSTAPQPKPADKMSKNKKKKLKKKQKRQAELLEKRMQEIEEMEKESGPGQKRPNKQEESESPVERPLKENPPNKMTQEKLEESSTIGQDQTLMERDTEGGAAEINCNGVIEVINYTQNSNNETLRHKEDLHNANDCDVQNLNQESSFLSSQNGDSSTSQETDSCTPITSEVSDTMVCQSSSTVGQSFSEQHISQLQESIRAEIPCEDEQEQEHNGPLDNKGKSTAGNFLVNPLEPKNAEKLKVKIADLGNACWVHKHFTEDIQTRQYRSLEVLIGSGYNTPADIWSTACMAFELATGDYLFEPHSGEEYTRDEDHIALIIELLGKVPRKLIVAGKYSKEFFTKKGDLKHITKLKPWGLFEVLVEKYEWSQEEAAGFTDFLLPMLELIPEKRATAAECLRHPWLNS
Sequence of panel of more than 300 wild-type and mutant kinases (313 kinase panel) (Homo sapiens, UniProt P10721, V654A) (P10721 26-976 V654A): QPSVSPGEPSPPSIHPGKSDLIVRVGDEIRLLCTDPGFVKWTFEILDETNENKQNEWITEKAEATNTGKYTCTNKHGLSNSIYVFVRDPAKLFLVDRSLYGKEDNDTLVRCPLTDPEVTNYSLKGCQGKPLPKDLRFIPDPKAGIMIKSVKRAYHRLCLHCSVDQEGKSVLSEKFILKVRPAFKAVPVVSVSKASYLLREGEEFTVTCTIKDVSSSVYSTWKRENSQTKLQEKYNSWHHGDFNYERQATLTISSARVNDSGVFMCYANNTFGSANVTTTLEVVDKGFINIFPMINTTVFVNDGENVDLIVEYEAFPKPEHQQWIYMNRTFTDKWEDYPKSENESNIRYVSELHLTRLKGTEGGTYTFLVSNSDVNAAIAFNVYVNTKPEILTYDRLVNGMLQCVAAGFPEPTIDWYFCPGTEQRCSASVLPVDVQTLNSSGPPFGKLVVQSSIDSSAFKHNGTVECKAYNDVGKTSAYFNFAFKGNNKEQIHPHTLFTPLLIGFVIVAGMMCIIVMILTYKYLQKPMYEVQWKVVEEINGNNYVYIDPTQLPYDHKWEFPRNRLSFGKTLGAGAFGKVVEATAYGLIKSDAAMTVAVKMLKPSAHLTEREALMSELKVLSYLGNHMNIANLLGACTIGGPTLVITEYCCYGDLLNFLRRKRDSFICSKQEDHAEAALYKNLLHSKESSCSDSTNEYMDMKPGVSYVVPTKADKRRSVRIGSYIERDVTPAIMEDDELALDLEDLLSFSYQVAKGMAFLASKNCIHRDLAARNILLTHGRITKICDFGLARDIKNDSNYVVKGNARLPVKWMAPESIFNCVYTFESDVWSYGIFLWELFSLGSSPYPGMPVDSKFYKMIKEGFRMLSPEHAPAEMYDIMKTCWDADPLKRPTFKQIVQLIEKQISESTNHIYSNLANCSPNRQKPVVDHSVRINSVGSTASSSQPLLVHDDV

Row | Compound | %-inhibition of Haspin [1, 9] [%] | %-inhibition of SRPK1 ([2]; kinase SRPK1, 1 μM) [%] | %-inhibition of MAP2K3 [3, 10] [%] | %-inhibition of MET ([4]; kinase MET, compound at 1 μM) [%] | %-inhibition of KIT(V654A) [5, 11] [%] | %-inhibition, AKT2 ([6]; kinase AKT2, 1 μM compound) [%] | %-inhibition of NEK9 ([7]; kinase NEK9, 1 μM) [%] | %-inhibition of TIE2 ([8]; kinase TIE2, 1 μM) [%] | %-inhibition of Haspin ([1]; 1 µM) [%] | %-inhibition of SRPK1 ([2]; 1 µM) [%] | %-inhibition of MAP2K3 ([3]; 1 µM) [%] | %-inhibition of MET ([4]; 1 µM) [%] | %-inhibition of KIT(V654A) ([5]; 1 µM) [%] | %-inhibition, AKT2 ([6]; 1 µM) [%] | %-inhibition of NEK9 ([7]; 1 µM) [%] | %-inhibition of TIE2 ([8]; 1 µM) [%]
1 | O=S(=O)(c1cccc2cnccc12)N1CCCNCC1 [fasudil] | 72 | -5.38 | -4 | -4 | -4 | -8 | -3 | -10 |  |  |  |  |  |  |  | 
2 | C#Cc1cccc(Nc2ncnc3cc(OCCOC)c(OCCOC)cc23)c1 [erlotinib] |  |  |  |  |  |  |  |  | -8 | -1.67 | 10 | 13 | 1.65 | 8 | 7 | 9
3 | Cc1cn(-c2cc(NC(=O)c3ccc(C)c(Nc4nccc(-c5cccnc5)n4)c3)cc(C(F)(F)F)c2)cn1 [nilotinib] | 2.56 | 3 | 94 | -9 |  | 12 | -21 | 41 |  |  |  |  | 19 |  |  | 
4 | CC(=O)Nc1cccc(-n2c(=O)n(C3CC3)c(=O)c3c(Nc4ccc(I)cc4F)n(C)c(=O)c(C)c32)c1 [trametinib] | 5 | -0.0691 | 3 | -2.41 | -1.62 | -8 | -3 | -7 |  |  |  |  |  |  |  | 
